Test results reported in publication PMC2628638, “Catalytic inhibition of topoisomerase II by a novel rationally designed ATP-competitive purine analogue” (BMC Chemical Biology, 2009).

Assays:
Assay type in all cases: cell-based
HL-60 cells [1] = experiment: Proliferation assay over 72 hours; details: read-out: half-maximal growth inhibitory concentration (GI50)
[2] = system: HCC1937 BRCA1 mutant and HCC1937 BRCA1 reconstituted cells; experiment: Clonogenic growth assay (WST-1, colony counting); details: continuous treatment for 9 days, WST-1 and colony numbers
Description: HCC1937 BRCA1 mutant and HCC1937 BRCA1 reconstituted breast ductal carcinoma cells were cultured in RPMI-1640 medium supplemented with 10% fetal calf serum, 2 mM L-glutamine, 1 mM sodium pyruvate, 4.5 g/l glucose and 1% (v/v) penicillin/streptomycin. Status of BRCA1 was corroborated by immunoprecipitation using 50 μg nuclear extracts and 1 μg mouse monoclonal antibody MS110 (ab16780, Abcam Inc., Cambridge, MA), which is directed towards the amino-terminus of the protein. Blots were probed with BRCA1 carboxy-terminal specific mouse monoclonal antibody D9 (sc-6954, Santa Cruz Biotechnologies, Santa Cruz, CA) and, following stripping, re-probed with antibody MS110. For assays, 5000 cells in 3 ml medium were seeded per well of 6 well plates in duplicates. The day after, vehicle (DMSO) or compounds were added. After one week medium was exchanged and vehicle or compounds were re-added for an additional two days. To assess proliferation the medium in each well was replaced with 1 ml medium containing 100 μl WST-1 reagent and incubation for 20 minutes at 37°C. Of each sample 110 μl supernatant were transferred into a 96 well plate and the OD was read at 450 nm (filter at 630 nm) on a SpectraMax Plus microtiter plate reader using SoftMax Pro software (Molecular Devices). For background correction, the blank value consisted of 100 μl medium containing 10 μl WST-1. Thereafter, colonies were stained by removing medium, washing cells once with PBS and incubation with 1 ml crystal violet solution for 30 minutes at room temperature. Cells were washed twice with PBS and colonies were counted using an Artec Counter (Model 880, Artec, Dyntatech Laboratories Inc.) with diameter cut-off set to 0.2 mm. Data were expressed as growth or colony numbers relative to vehicle control treatments (100%).

HeLa T-Rex cells = experiment: Gamma-H2AX In-Cell Western assay (doxorubicin-induced DNA damage); details: 30 minutes pretreatment, then 1 μM doxorubicin for 2 hours; read-out: IC50, suppression of doxorubicin-induced γH2AX signal
Description: In-Cell Western analysis was carried out as follows. HeLa T-Rex cells were seeded at the cell density of 15 × 10^3 cells per well in black 96-well plates (Greiner Bio-one Vacuette, St Gallen, Switzerland). The day post-seeding, cells were pretreated with increasing concentrations of either ICRF-193, QAP 1 or vehicle (DMSO) for 30 minutes followed by a 2 hours treatment with 1 μM of doxorubicin, or were only treated with the same concentrations of ICRF-193, QAP 1 or vehicle (DMSO) for 2 hours. Treatments were done in triplicate. […] Finally, cells were washed 4 times with 50 μl per well of PBS containing 0.1% Tween-20 for 3 minutes, liquid was removed and plates were kept at 4°C until reading. γH2AX signals were read using the LI-COR Odyssey Infrared Imager with the Odyssey v1.1 software using the 800 nm channel. Blank values correspond to non-specific γH2AX signal detected in wells without primary antibody staining. […] The resulting values for each sample were normalized to the DNA quantity by measuring the corresponding TO-PRO-3 iodide signals. The TO-PRO-3 iodine signals were detected by using the 700 nm channel. The percentage of γH2AX signal was determined for each concentration of ICRF193 and QAP 1 with or without doxorubicin treatment by setting the value for the treatment with vehicle and 1 μM doxorubicin to 100%. […]

HL-60 cells [3] = experiment: Chromosome segregation assay (chromosome spreads)
Description: HL-60 cells were treated overnight for 16 hours with 2 μg/ml aphidicolin (Sigma-Aldrich corporation, St. Louis, MO) and released by washing twice PBS and resuspending into fresh medium. After 6 hours release the cells were treated with 1 mM caffeine (Lancaster Synthesis, Heysham, Lancashire, UK) and with catalytic topoisomerase II inhibitor or vehicle for 2 hours. Cells were washed once with PBS and incubated with 56 mM KCl hypotonic solution for 30 minutes. Cells were pelleted and carefully resuspended in Carnoy's fixative. Cells were pelleted as above, supernatant was removed and cells were resuspended again in 2 ml fixative. Chromosome spreads were prepared by dropping 50 μl cell suspension onto microscopy slides. The slides were allowed to dry and then stained for 10 seconds in Hoechst 33342 dye (Molecular Probes, Eugene, Oregon, prepared 1:1000 in PBS from 10 mg/ml stock). After drying, mounting media (Vectashield®, Vector Laboratories, Burlingame, CA) and a cover slip were added. Samples were observed using an immersion oil lens (100 ×, Nikon, Plan Apo VC) by fluorescence microscopy (Nikon Eclipse, E600) in the DAPI channel. Images were acquired using analySIS® software (Soft Imaging System GmbH, Münster, Germany). Representative images were converted to grayscale, inverted and contrast adjusted with Adobe Photoshop. Mitotic cells were categorized as described.

HL-60 cells [4] = experiment: Gamma-H2AX Western blot (doxorubicin-induced DNA damage); details: both drugs 5 μM, 30 minutes pretreatment, doxorubicin 2 hours
Description: Histone extracts of HL-60 or HeLa T-Rex cells for Western blot analysis were prepared as follows: Following treatments, medium was removed and cells were collected/washed with PBS. Cells were centrifuged for 5 minutes at 1500 rpm and 4°C and the cell pellet was resuspended in 300 μl of ice-cold hypotonic buffer (see above). Cells were transferred in a 1.5 ml Eppendorf tube and incubated for 15 minutes on ice. Thereafter, NP-40 was added to the cells to a final concentration of 0.6% (v/v) and cells were disrupted by pumping 10–15 times through a 1 ml syringe connected to a 23-gauge needle. The extract was centrifuged for 10 minutes at 8000 rpm and 4°C. The supernatant (cytoplasmic fraction) was removed and the nuclear pellet was washed once with 500 μl of ice-cold hypotonic buffer for 4 minutes at 8000 rpm. Nuclear proteins were extracted by addition of 22 μl sample buffer and boiling for 3 minutes. Samples were resolved by 15% SDS-PAGE following transfer to PVDF membrane. After blocking, membranes were incubated either with anti-γH2AX (clone JBW301, 05–636, Upstate, Charlottesville, VA, diluted 1:1000 in PBS containing 0.1% Tween 20 and 5% milk) or histone H3 (catalog number 9715, Cell Signaling Technologies Inc., Beverly, MA, diluted 1:1000 in TBS containing 0.1% Tween 20 and 5% milk) antibodies overnight at 4°C.

Substance: ICRF-193 [reference compound]
- GI50 (HL-60 cells [1]): 250 nM
- sensitivity of BRCA1 mutant versus BRCA1 reconstituted HCC1937 cells [2]: somewhat more sensitive
- IC50 (HeLa T-Rex cells): ~200 nM
- chromosome segregation at mitosis (HL-60 cells [3]; 400 nM with 1 mM caffeine for 2 hours after 6 hours release): anaphases looked abnormal
- chromosome segregation at mitosis (HL-60 cells [3]; 1 μM with caffeine for 2 hours after 6 hours release from aphidicolin): no normal anaphases or telophases could be observed
- effect of pretreatment on doxorubicin-induced γH2AX (Western blot) (HL-60 cells [4]): suppressed
